# Test results from publication PMC5783810 (Saudi Pharmaceutical Journal : SPJ, 2017).
# Experiment: Water solubility
# Conditions: relative to trolox (0.1 g/L)
row,Molecule,fold increase in water solubility relative to trolox
1,"Cc1c(C)c2c(c(C)c1O)CCC(C)(C(=O)O)O2.O=c1cccc2n1CC1CNCC2C1 (stereo not drawn) [2l, 6-Hydroxy-2,5,7,8-tetramethylchromane-2-carboxylate, 1,2,3,4,5,6-hexahydro-1,5-methano-8H-pyridinium-[1,2-α][1,5]-diazotsin-8-one]",20–590 fold
2,"6-Hydroxy-2,5,7,8-tetramethylchromane-2-carboxylate, 1-(1H-indol-3-yl)-N,N-dimetilmetanammonium [2q]",20–590 fold

# Second part, the molecule after the results:
row,fold increase in water solubility relative to trolox,Molecule
1,20–590 fold,"6-Hydroxy-2,5,7,8-tetramethylchromane-2-carboxylate, 3-(3,4-dimethoxybenzoate)-8-ammoniybicyclo[3.2.1]octane [2m]"
2,20–590 fold,"6-Hydroxy-2,5,7,8-tetramethylchromane-2-carboxylate, 4-(N-acetylantranoiloxy)-8,9-dihydroxy-1α,14α,16β-trimethoxy-N-ethylammonium-18-norakonan [2p]"
3,10 fold,"6-Hydroxy-2,5,7,8-tetramethylchromane-2-carboxylate 1-oxyl-2,2,6,6-tetramethylpiperidine-4-ammonium [2g]"
4,20 fold,"6-Hydroxy-2,5,7,8-tetramethylchromane-2-carboxylate 1-oxyl-2,2,5,5-tetramethylpirrolidin-4-ammonium [2h]"

# Same assay, conditions: water, thermodynamic from solid
row,Molecule,solubility at 10 min
1,"CCN(CC)CC.Cc1c(C)c2c(c(C)c1O)CCC(C)(C(=O)O)O2 (centres unmarked) [2n, 6-Hydroxy-2,5,7,8-tetramethylchromane-2-carboxylate, triethylammonium]",3000 µg/mL
2,"Cc1c(C)c2c(c(C)c1O)CCC(C)(C(=O)O)O2 (centres unmarked) [compound 1, 6-hydroxy-2,5,7,8-tetra methyl chromane-2-carboxylic acid, reference compound]",100 µg/mL
